Tests used:
[1] = tested on: PANC-1 Xenograft; assay: PANC-1 xenograft mouse model of pancreatic ductal carcinoma; assay type: in vivo; settings: 120 mg/Kg i.p. twice a week for 6 weeks
Method: (§1) Peptides in their stereoisomer forms were tested in vivo using two mouse models of human pancreatic ductal adenocarcinoma: the PANC-1 Xenograft mouse model and the MiaPaca-2 Xenograft mouse model. Athymic male nude mice (nu/nu) were injected s.c. with cultured […] human pancreatic cancer cells from each different model in the right mice flanks After tumors reached ˜150 mm^3 mice were randomly separated into three groups (n=3/group). Group 1 was treated with vehicle; Group 2 was treated with 120 mg/Kg Gemcitabine (standard established dose); and Group 3 was treated with 25 mg/kg of a combination of four stereoisomer peptides. Mice were dosed by i.p. injection twice a week for 6 weeks.

[2] = tested on: MiaPaca-2 Xenograft; assay: MIAPaCa-2 xenograft mouse model of pancreatic ductal carcinoma; assay type: in vivo; settings: 120 mg/Kg i.p. twice a week for 6 weeks
Method: as §1
In this model the tumors of treated mice grew slowly compared to untreated mice (see FIG. 14A). […] These two human mouse models confirm the therapeutic potency, efficacy, and value of the stereoisomer peptides to treat pancreatic cancer, one of the deadliest cancers for which there are no therapies.

In the case of `Nc1ccn([C@@H]2O[C@H](CO)[C@@H](O)C2(F)F)c(=O)n1` [Gemcitabine], the condition of mice [1] is reported as “moribund”, the body weight [2] is reported as “lost body weight” and the condition of mice [2] is reported as “moribund”. For the same molecule, the livers after euthanasia [2] was “dark with signs of necrosis”.
